In PMC7265341, “Quantifying CDK inhibitor selectivity in live cells” (Nature Communications, 2020):
Read-outs that look alike come from different tables or passages of the source.

Experiments:
CDK5/CDK5R1 = CDK5/CDK5R1 (Homo sapiens, UniProt Q00535); test: NanoBRET live-cell target engagement, CDK5-NanoLuc/CDK5R1 in HEK-293; type: binding; settings: CDK5/CDK5R1
CDK10/Cyclin L2 = CDK10/Cyclin L2 (Homo sapiens, UniProt Q15131); test: NanoBRET live-cell target engagement, CDK10-NanoLuc/Cyclin L2 in HEK-293; settings: CDK10/L2
CDK4/Cyclin D1 = CDK4/Cyclin D1 (Homo sapiens, UniProt P11802); test: NanoBRET live-cell target engagement, NanoLuc-CDK4/Cyclin D1 in HEK-293; type: binding; settings: CDK4/D1; for IC50: read-out: IC50
Sequence of CDK4/Cyclin D1 (P11802 whole entry): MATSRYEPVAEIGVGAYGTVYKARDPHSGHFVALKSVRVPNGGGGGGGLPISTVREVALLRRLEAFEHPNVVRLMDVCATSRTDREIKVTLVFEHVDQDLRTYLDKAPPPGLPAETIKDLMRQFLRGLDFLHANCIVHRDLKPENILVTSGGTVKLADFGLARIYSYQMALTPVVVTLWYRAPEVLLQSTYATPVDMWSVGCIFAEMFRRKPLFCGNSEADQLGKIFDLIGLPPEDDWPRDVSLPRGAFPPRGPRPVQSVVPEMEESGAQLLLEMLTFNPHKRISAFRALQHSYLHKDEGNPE
Sequence of CDK4/Cyclin D1 (P24385 whole entry partner): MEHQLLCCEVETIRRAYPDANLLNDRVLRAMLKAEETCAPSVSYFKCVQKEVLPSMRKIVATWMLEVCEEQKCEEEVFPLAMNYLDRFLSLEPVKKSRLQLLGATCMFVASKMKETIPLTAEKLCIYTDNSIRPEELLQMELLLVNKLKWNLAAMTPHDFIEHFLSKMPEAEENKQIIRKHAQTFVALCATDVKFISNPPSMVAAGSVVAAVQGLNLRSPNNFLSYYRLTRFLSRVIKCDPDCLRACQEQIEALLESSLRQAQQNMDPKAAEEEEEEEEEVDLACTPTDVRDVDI

CDK11A/Cyclin L2 = molecular target: T1, CDK11A/Cyclin L2 (Homo sapiens, UniProt Q9UQ88); test: NanoBRET live-cell target engagement, CDK11A-NanoLuc/Cyclin L2 in HEK-293; type: binding; settings: CDK11a/L2; for IC50: read-out: IC50
T1 sequence (Q9UQ88 1-783): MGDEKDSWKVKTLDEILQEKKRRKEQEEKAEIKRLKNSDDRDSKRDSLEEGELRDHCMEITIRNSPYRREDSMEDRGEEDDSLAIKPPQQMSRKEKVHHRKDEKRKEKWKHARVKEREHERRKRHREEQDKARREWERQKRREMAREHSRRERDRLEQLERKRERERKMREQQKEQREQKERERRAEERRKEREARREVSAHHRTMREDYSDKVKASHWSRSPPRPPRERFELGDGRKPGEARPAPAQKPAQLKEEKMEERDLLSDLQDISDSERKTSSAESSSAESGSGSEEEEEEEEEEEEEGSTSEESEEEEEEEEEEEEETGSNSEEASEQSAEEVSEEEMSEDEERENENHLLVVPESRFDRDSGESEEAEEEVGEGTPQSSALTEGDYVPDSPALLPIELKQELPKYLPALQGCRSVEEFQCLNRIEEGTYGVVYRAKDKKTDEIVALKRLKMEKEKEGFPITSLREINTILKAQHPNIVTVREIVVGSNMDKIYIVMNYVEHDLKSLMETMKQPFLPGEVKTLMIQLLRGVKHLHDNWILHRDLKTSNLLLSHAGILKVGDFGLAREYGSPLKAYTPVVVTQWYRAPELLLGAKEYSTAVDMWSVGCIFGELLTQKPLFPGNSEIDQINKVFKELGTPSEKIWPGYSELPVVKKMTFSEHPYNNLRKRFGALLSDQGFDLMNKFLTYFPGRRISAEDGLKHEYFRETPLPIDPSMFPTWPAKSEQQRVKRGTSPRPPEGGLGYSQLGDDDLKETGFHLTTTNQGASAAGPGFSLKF

CDK6/Cyclin D1 = CDK6/Cyclin D1 (Homo sapiens, UniProt Q00534); test: NanoBRET live-cell target engagement, NanoLuc-CDK6/Cyclin D1 in HEK-293; type: binding; settings: CDK6/D1; for IC50: read-out: IC50
CDK14/Cyclin Y = CDK14/Cyclin Y (Homo sapiens, UniProt O94921); test: NanoBRET live-cell target engagement, CDK14-NanoLuc/Cyclin Y in HEK-293; type: binding; settings: CDK14/Y; for IC50: read-out: IC50
CDK11B/Cyclin L2 = CDK11B/Cyclin L2 (Homo sapiens, UniProt P21127); test: NanoBRET live-cell target engagement, CDK11B-NanoLuc/Cyclin L2 in HEK-293; type: binding; settings: CDK11b/L2; for IC50: read-out: IC50
Sequence of CDK11B/Cyclin L2 (P21127 1-782 isoform P21127-2): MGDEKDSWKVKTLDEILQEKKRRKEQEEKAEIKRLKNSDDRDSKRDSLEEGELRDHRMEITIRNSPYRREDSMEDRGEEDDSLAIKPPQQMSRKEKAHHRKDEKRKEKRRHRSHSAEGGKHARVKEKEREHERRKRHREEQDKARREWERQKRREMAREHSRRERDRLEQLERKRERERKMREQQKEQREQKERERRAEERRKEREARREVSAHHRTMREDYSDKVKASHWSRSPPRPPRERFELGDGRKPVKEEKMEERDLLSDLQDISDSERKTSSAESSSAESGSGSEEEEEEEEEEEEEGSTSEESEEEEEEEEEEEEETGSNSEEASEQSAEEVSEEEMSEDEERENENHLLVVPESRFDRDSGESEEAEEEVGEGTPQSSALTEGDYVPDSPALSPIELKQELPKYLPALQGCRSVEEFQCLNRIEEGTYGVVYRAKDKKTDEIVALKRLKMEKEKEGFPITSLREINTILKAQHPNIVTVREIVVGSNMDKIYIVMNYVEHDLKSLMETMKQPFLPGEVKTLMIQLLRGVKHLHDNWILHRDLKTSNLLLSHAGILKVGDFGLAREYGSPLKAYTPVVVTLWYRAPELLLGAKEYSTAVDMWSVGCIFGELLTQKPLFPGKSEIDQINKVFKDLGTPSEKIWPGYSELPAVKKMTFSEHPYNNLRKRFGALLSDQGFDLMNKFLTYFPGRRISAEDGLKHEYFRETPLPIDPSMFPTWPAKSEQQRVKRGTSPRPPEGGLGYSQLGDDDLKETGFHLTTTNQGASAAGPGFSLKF

CDK1/Cyclin E1 = CDK1/Cyclin E1 (Homo sapiens, UniProt P06493); test: NanoBRET live-cell target engagement, CDK1-NanoLuc/Cyclin E1 in HEK-293; type: binding; settings: CDK1/E1
Sequence of CDK1/Cyclin E1 (P06493 whole entry): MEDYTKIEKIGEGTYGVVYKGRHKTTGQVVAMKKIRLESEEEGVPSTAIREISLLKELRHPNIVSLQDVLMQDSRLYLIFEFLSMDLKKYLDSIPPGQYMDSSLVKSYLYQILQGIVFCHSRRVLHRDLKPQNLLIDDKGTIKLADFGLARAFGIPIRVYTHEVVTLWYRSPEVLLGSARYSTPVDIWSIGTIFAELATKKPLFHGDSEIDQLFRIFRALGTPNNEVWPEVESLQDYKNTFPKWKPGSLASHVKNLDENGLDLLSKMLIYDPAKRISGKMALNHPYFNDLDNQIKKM
Sequence of CDK1/Cyclin E1 (P24864 whole entry partner): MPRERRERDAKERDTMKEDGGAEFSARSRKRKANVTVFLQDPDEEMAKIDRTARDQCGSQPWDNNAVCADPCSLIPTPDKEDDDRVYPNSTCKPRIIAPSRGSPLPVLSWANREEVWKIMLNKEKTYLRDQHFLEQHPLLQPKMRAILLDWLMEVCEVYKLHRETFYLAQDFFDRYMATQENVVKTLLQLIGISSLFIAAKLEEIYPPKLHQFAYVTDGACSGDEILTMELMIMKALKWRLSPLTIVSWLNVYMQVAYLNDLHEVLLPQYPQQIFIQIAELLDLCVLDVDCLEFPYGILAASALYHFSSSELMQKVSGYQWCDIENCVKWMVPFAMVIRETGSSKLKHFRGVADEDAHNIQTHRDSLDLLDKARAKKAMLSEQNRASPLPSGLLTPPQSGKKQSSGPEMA

CDK16/Cyclin Y = CDK16/Cyclin Y (Homo sapiens, UniProt Q00536); test: NanoBRET live-cell target engagement, CDK16-NanoLuc/Cyclin Y in HEK-293; type: binding; settings: CDK16/Y; for IC50: read-out: IC50
CDK8/Cyclin C = CDK8/Cyclin C (Homo sapiens, UniProt P49336); test: NanoBRET live-cell target engagement, NanoLuc-CDK8/Cyclin C in HEK-293; type: binding; settings: CDK8/C
Sequence of CDK8/Cyclin C (P49336 whole entry): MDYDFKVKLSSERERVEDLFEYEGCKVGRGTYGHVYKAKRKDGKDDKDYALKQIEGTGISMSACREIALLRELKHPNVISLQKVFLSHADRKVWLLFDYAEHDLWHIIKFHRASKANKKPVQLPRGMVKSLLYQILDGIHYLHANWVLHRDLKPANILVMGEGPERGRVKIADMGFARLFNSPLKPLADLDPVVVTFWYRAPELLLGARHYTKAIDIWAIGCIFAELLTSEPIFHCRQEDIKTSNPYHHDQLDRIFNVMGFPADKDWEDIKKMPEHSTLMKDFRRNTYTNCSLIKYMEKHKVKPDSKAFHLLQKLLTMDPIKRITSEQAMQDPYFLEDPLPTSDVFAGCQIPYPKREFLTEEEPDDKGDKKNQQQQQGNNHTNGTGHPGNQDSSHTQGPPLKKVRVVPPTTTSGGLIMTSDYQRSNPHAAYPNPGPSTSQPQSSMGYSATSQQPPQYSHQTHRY
Sequence of CDK8/Cyclin C (P24863 whole entry partner): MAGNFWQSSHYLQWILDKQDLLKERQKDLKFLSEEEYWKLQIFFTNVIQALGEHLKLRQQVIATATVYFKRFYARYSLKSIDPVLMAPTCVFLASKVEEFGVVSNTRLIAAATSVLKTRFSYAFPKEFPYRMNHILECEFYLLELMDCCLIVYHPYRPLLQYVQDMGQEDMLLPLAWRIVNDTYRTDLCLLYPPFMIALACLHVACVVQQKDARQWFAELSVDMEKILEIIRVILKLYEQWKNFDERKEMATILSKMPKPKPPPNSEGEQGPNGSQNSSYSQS

CDK9/Cyclin K = CDK9/Cyclin K (Homo sapiens, UniProt P50750); test: NanoBRET live-cell target engagement, NanoLuc-CDK9/Cyclin K in HEK-293; type: binding; settings: CDK9/K
CDK2/Cyclin E1 = CDK2/Cyclin E1 (Homo sapiens, UniProt P24941); test: NanoBRET live-cell target engagement, CDK2-NanoLuc/Cyclin E1 in HEK-293; type: binding; settings: CDK2/E1; for IC50: read-out: IC50
CDK20/Cyclin H = CDK20/Cyclin H (Homo sapiens, UniProt Q8IZL9); test: NanoBRET live-cell target engagement, NanoLuc-CDK20/Cyclin H in HEK-293; type: binding; settings: CDK20/H
CDK18/Cyclin Y = CDK18/Cyclin Y (Homo sapiens, UniProt Q07002); test: NanoBRET live-cell target engagement, CDK18-NanoLuc/Cyclin Y in HEK-293; type: binding; settings: CDK18/Y; for IC50: read-out: IC50
Sequence of CDK18/Cyclin Y (Q07002 whole entry): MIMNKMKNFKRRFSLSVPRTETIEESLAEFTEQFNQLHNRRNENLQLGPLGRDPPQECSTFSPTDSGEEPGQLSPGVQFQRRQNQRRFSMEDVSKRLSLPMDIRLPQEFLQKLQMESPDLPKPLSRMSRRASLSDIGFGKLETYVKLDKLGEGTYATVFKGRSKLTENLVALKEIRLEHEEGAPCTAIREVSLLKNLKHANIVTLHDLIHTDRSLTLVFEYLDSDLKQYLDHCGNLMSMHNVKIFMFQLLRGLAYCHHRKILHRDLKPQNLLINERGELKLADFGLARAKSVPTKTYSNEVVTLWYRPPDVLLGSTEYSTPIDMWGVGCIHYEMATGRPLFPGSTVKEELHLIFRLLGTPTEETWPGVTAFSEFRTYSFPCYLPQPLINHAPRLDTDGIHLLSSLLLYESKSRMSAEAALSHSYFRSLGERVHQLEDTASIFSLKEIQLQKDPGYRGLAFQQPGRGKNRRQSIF
Sequence of CDK18/Cyclin Y (Q8ND76 whole entry partner): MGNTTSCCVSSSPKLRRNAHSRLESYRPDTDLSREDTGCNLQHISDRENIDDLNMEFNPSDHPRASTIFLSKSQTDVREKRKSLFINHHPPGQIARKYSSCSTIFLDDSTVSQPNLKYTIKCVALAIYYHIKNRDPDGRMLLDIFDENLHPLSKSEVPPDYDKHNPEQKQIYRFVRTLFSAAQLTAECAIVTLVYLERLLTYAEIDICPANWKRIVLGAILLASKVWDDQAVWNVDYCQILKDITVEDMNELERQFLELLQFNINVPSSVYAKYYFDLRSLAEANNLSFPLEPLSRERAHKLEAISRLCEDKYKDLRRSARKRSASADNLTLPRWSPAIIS

CDK17/Cyclin Y = CDK17/Cyclin Y (Homo sapiens, UniProt Q00537); test: NanoBRET live-cell target engagement, CDK17-NanoLuc/Cyclin Y in HEK-293; type: binding; settings: CDK17/Y; for IC50: read-out: IC50
Sequence of CDK17/Cyclin Y (Q00537 whole entry): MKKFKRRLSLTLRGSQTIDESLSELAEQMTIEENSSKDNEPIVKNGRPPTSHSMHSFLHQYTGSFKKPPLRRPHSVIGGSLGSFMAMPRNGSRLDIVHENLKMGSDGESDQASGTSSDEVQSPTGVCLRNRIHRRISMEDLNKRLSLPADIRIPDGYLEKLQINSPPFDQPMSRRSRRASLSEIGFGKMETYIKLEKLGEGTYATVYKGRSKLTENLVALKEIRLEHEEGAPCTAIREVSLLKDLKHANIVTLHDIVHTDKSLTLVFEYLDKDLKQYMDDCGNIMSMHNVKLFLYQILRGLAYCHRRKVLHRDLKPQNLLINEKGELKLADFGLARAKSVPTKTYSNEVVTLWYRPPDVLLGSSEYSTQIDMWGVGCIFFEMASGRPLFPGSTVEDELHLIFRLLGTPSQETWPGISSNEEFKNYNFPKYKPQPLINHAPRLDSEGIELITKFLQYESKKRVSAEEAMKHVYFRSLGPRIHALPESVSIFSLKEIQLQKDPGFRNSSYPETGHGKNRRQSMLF
Sequence of CDK17/Cyclin Y (Q8ND76 whole entry partner): as the sequence (Q8ND76 whole entry partner) above

CDK19/Cyclin C = CDK19/Cyclin C (Homo sapiens, UniProt Q9BWU1); test: NanoBRET live-cell target engagement, NanoLuc-CDK19/Cyclin C in HEK-293; settings: CDK19/C
CDK15/Cyclin Y = CDK15/Cyclin Y (Homo sapiens, UniProt Q96Q40); test: NanoBRET live-cell target engagement, NanoLuc-CDK15/Cyclin Y in HEK-293; type: binding
Sequence of CDK15/Cyclin Y (Q96Q40 whole entry): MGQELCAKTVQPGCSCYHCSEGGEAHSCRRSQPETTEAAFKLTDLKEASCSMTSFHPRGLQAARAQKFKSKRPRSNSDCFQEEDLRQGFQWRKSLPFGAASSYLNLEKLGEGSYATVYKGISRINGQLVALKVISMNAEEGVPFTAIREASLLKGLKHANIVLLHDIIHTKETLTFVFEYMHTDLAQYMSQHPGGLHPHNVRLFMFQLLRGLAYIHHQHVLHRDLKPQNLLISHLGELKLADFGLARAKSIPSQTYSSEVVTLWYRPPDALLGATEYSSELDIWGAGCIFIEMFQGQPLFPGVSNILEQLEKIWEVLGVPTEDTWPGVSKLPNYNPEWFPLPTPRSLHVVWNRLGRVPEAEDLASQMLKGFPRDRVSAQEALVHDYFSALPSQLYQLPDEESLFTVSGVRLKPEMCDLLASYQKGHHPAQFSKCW
Sequence of CDK15/Cyclin Y (Q8ND76 whole entry partner): as the sequence (Q8ND76 whole entry partner) above

CDK12/Cyclin K = CDK12/Cyclin K (Homo sapiens, UniProt Q9NYV4); test: NanoBRET live-cell target engagement, CDK12-NanoLuc/Cyclin K in HEK-293; type: binding; settings: CDK12/K
CDK13/Cyclin K = CDK13/Cyclin K (Homo sapiens, UniProt Q14004); test: NanoBRET live-cell target engagement, CDK13-NanoLuc/Cyclin K in HEK-293; type: binding; settings: CDK13/K

CC(C)c1c2cc(-c3ccnc(N[C@H]4CC[C@H](NC5CCOCC5)CC4)n3)ccc2nn1C [LY2857785]
Inhibition at 10µM (%) (CDK5/CDK5R1; average): 68.7% | Inhibition at 10µM (%) (CDK5/CDK5R1; experiment 1): 68.7% | Inhibition at 10µM (%) (CDK5/CDK5R1; experiment 2): 68.7% | Inhibition at 10µM (%) (CDK10/Cyclin L2; average): 80.7% | IC50 (CDK10/Cyclin L2; average (± SEM where n=3)): 600 nM | IC50 (CDK10/Cyclin L2; experiment 1): 490 nM | Inhibition at 10µM (%) (CDK10/Cyclin L2; experiment 1): 81.9% | IC50 (CDK10/Cyclin L2; experiment 2): 710 nM | Inhibition at 10µM (%) (CDK10/Cyclin L2; experiment 2): 79.4% | Inhibition at 10µM (%) (CDK4/Cyclin D1; average): 97.1% | IC50 (CDK4/Cyclin D1; average (± SEM where n=3)): 40 nM | Inhibition at 10µM (%) (CDK4/Cyclin D1; experiment 1): 97.8% | IC50 (CDK4/Cyclin D1; experiment 1): 44 nM | Inhibition at 10µM (%) (CDK4/Cyclin D1; experiment 2): 96.5% | IC50 (CDK4/Cyclin D1; experiment 2): 36 nM | Inhibition at 10µM (%) (CDK11A/Cyclin L2; average): 95.5% | IC50 (CDK11A/Cyclin L2; average (± SEM where n=3)): 17 nM | Inhibition at 10µM (%) (CDK11A/Cyclin L2; experiment 1): 95.3% | IC50 (CDK11A/Cyclin L2; experiment 1): 10 nM | Inhibition at 10µM (%) (CDK11A/Cyclin L2; experiment 2): 95.7% | IC50 (CDK11A/Cyclin L2; experiment 2): 23 nM | Inhibition at 10µM (%) (CDK6/Cyclin D1; average): 96.5% | IC50 (CDK6/Cyclin D1; average (± SEM where n=3)): 110 nM | Inhibition at 10µM (%) (CDK6/Cyclin D1; experiment 1): 96.6% | IC50 (CDK6/Cyclin D1; experiment 1): 124 nM | Inhibition at 10µM (%) (CDK6/Cyclin D1; experiment 2): 96.3% | IC50 (CDK6/Cyclin D1; experiment 2): 98 nM | Inhibition at 10µM (%) (CDK14/Cyclin Y; average): 90.6% | IC50 (CDK14/Cyclin Y; average (± SEM where n=3)): 510 nM | Inhibition at 10µM (%) (CDK14/Cyclin Y; experiment 1): 90.3% | IC50 (CDK14/Cyclin Y; experiment 1): 392 nM | Inhibition at 10µM (%) (CDK14/Cyclin Y; experiment 2): 90.9% | IC50 (CDK14/Cyclin Y; experiment 2): 630 nM | Inhibition at 10µM (%) (CDK11B/Cyclin L2; average): 94.8% | IC50 (CDK11B/Cyclin L2; average (± SEM where n=3)): 24 nM | Inhibition at 10µM (%) (CDK11B/Cyclin L2; experiment 1): 95.7% | IC50 (CDK11B/Cyclin L2; experiment 1): 21 nM | Inhibition at 10µM (%) (CDK11B/Cyclin L2; experiment 2): 93.9% | IC50 (CDK11B/Cyclin L2; experiment 2): 27 nM | Inhibition at 10µM (%) (CDK1/Cyclin E1; average): 76.5% | Inhibition at 10µM (%) (CDK1/Cyclin E1; experiment 1): 76.1% | Inhibition at 10µM (%) (CDK1/Cyclin E1; experiment 2): 76.9% | IC50 (CDK16/Cyclin Y; average (± SEM where n=3)): 160 nM | Inhibition at 10µM (%) (CDK16/Cyclin Y; experiment 1): 82.9% | IC50 (CDK16/Cyclin Y; experiment 1): 220 nM | Inhibition at 10µM (%) (CDK16/Cyclin Y; experiment 2): 91.1% | IC50 (CDK16/Cyclin Y; experiment 2): 91 nM | Inhibition at 10µM (%) (CDK8/Cyclin C; average): 83.7% | Inhibition at 10µM (%) (CDK8/Cyclin C; experiment 1): 88.4% | Inhibition at 10µM (%) (CDK8/Cyclin C; experiment 2): 79.0% | Inhibition at 10µM (%) (CDK9/Cyclin K; average): 97.9% | Inhibition at 10µM (%) (CDK9/Cyclin K; experiment 1): 98.0% | Inhibition at 10µM (%) (CDK9/Cyclin K; experiment 2): 97.9% | Inhibition at 10µM (%) (CDK2/Cyclin E1; average): 85.9% | IC50 (CDK2/Cyclin E1; average (± SEM where n=3)): 660 nM | Inhibition at 10µM (%) (CDK2/Cyclin E1; experiment 1): 85.1% | IC50 (CDK2/Cyclin E1; experiment 1): 730 nM | Inhibition at 10µM (%) (CDK2/Cyclin E1; experiment 2): 86.7% | IC50 (CDK2/Cyclin E1; experiment 2): 590 nM | Inhibition at 10µM (%) (CDK20/Cyclin H; experiment 1): 39.4% | Inhibition at 10µM (%) (CDK20/Cyclin H; experiment 2): 39.8% | Inhibition at 10µM (%) (CDK18/Cyclin Y; average): 96.0% | IC50 (CDK18/Cyclin Y; average (± SEM where n=3)): 290 nM | Inhibition at 10µM (%) (CDK18/Cyclin Y; experiment 1): 91.6% | IC50 (CDK18/Cyclin Y; experiment 1): 204 nM | Inhibition at 10µM (%) (CDK18/Cyclin Y; experiment 2): 100.3% | IC50 (CDK18/Cyclin Y; experiment 2): 370 nM | Inhibition at 10µM (%) (CDK17/Cyclin Y; average): 90.5% | IC50 (CDK17/Cyclin Y; average (± SEM where n=3)): 41 nM | Inhibition at 10µM (%) (CDK17/Cyclin Y; experiment 1): 89.7% | IC50 (CDK17/Cyclin Y; experiment 1): 15 nM | Inhibition at 10µM (%) (CDK17/Cyclin Y; experiment 2): 91.4% | IC50 (CDK17/Cyclin Y; experiment 2): 67 nM | Inhibition at 10µM (%) (CDK19/Cyclin C; average): 82.9% | Inhibition at 10µM (%) (CDK19/Cyclin C; experiment 1): 90.1% | Inhibition at 10µM (%) (CDK19/Cyclin C; experiment 2): 75.7% | Inhibition at 10µM (%) (CDK15/Cyclin Y; CDK15/Y, average): 93.6% | IC50 (CDK15/Cyclin Y; CDK15/Y, average (± SEM where n=3), read-out: IC50): 320 nM | Inhibition at 10µM (%) (CDK15/Cyclin Y; CDK15/Y, experiment 1): 93.4% | IC50 (CDK15/Cyclin Y; CDK15/Y, experiment 1, read-out: IC50): 323 nM | Inhibition at 10µM (%) (CDK15/Cyclin Y; CDK15/Y, experiment 2): 93.9% | IC50 (CDK15/Cyclin Y; CDK15/Y, experiment 2, read-out: IC50): 320 nM | IC50 (CDK15/Cyclin Y; live HEK-293, 2 h, mean ± S.E.M. (n=3) or mean (n=2), read-out: IC50 for CDK/cyclin complexes, CDK15/Y): 320 nM | Inhibition at 10µM (%) (CDK12/Cyclin K; average): 43.6% | Inhibition at 10µM (%) (CDK12/Cyclin K; experiment 1): 48.1% | Inhibition at 10µM (%) (CDK12/Cyclin K; experiment 2): 39.1% | Inhibition at 10µM (%) (CDK13/Cyclin K; average): 26.3% | Inhibition at 10µM (%) (CDK13/Cyclin K; experiment 1): 28.2% | Inhibition at 10µM (%) (CDK13/Cyclin K; experiment 2): 24.3%
